Measurements as given in ChEMBL document CHEMBL1152068, “A study of 3-amino-N-hydroxypropanesulfonamide derivatives as potential GABAB agonists and their fragmentation to 3-aminopropanesulfinic acid” (Bioorg Med Chem Lett, 1996).

Tests used:
GABA B receptor = GABA B receptor (Rattus norvegicus, UniProt O88871+Q9Z0U4); experiment: Binding affinity against Gamma-aminobutyric acid type B receptor in rat brain synaptosomes after 30 minutes; format: subcellular
[1] = molecular target: GABA-A receptor; anion channel; experiment: Binding affinity against Gamma-aminobutyric acid A receptor in rat brain synaptosomes after 30 minutes; format: subcellular
Cavia porcellus [2] = experiment: Inhibitory effect on bronchospasm caused by vagal nerve stimulation (EFS) in anesthetized, mechanically ventilated guinea-pigs at 3 mg/kg after 10 minutes; format: functional; conditions: Bronchiole
Cavia porcellus [3] = species: Cavia porcellus; experiment: Compound was tested for its effect on EFS stimulated neuronal cholinergic contractions of guinea pig tracheal rings after 10 minutes; format: functional; conditions: Trachea
[4] = test system: GABA-A receptor; anion channel; experiment: Binding affinity against Gamma-aminobutyric acid A receptor in rat brain synaptosomes after 30 minutes (inactive); format: subcellular

Chain of GABA B receptor (Q9Z0U4 whole entry): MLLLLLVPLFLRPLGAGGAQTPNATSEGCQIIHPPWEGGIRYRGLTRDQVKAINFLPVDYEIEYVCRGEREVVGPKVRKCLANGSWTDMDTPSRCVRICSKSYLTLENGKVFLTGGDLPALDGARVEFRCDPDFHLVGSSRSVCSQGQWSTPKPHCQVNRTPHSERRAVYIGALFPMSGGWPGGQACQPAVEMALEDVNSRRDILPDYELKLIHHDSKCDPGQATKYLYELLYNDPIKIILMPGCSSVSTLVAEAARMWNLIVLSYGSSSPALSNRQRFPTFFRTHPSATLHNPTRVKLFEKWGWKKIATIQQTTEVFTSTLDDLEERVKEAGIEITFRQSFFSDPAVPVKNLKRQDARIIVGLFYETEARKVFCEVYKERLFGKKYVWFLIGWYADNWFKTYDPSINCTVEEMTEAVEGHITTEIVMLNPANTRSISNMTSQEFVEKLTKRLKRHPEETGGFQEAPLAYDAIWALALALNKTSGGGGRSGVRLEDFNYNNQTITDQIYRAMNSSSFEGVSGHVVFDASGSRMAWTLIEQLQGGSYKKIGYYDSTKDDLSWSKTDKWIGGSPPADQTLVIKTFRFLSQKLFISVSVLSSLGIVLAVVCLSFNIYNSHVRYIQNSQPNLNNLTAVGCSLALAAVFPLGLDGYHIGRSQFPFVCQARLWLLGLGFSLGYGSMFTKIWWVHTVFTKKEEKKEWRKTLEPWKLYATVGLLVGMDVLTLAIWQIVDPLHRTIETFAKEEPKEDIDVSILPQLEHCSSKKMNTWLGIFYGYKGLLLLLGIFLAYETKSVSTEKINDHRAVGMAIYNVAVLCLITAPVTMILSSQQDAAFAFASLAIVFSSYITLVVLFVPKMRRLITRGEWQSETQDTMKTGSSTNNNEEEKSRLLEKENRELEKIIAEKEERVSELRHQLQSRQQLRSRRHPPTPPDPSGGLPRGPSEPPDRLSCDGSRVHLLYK
Chain of GABA B receptor (O88871 whole entry): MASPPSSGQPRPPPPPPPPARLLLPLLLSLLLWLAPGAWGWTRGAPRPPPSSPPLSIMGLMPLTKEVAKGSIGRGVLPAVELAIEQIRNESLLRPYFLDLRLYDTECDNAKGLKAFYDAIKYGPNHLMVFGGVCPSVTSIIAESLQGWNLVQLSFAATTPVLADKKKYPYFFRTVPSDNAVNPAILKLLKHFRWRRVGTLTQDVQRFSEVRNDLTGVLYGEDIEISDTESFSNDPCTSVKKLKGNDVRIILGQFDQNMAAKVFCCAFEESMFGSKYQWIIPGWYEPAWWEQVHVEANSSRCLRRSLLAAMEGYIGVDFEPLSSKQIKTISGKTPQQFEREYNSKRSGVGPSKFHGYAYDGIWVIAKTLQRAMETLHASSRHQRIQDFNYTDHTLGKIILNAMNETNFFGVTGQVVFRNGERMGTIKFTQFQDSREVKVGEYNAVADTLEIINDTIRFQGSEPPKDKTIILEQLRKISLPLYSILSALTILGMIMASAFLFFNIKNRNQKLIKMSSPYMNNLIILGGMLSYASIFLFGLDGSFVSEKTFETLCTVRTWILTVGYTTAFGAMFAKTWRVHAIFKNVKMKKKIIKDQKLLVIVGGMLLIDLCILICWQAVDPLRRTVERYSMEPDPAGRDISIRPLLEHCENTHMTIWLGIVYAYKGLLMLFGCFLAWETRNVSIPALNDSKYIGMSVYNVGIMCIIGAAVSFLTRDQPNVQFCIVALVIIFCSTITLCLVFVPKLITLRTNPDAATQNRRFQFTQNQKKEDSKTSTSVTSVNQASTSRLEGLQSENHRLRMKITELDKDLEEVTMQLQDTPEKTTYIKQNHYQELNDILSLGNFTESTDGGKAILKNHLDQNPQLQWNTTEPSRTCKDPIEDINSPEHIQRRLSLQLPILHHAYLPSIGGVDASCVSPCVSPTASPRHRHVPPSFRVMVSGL

Compound | IC50 (GABA B receptor) [µM] | IC50 [1] [µM] | inhibition in vivo at 3 mg/kg (Cavia porcellus [2]) [%] | IC50 (Cavia porcellus [3]) [µM] | IC50 [4]
NCCCS(=O)(=O)N(O)CC(=O)O | 0.08 | 0.62 | – | – | –
NCCCS(=O)(=O)NO | 0.28 | 2 | 0 | 16 | –
NCCCS(=O)(=O)N(O)Cc1ccccc1 | 0.04 | 0.23 | 17 | 4.2 | –
CN(O)S(=O)(=O)CCCN | 0.04 | 0.28 | 17 | 2.6 | –
NCC(CC(=O)O)c1ccc(Cl)cc1 (racemic) [BACLOFEN] | – | – | 75 | 6.4 | Not Active
NCCCS(=O)O [HOMOHYPOTAURINE] | 0.06 | 0.47 | 25 | 1.7 | –
NCCCS(=O)(=O)O [TRAMIPROSATE] | 30 | 0.3 | – | – | –
